Experimental findings from patent US20040063580A1, “Bicyclic triazolone derivatives and a herbicides containing the same” (priority 2000, published 2004) are described below.

One series deals with corn. Description: Post emergence test, phytotoxicity on the crop corn. The class given is in vivo. The note with it: post emergence spray, evaluated two weeks after treatment. As to the method:
(§1) Herbicidal Effects Against Weeds (Post Emergence)
(§2) After filling 300 g field soil in jiffypot™ having diameter of 10 cm, the soil was steam sterilized. Seeds of velvetleaf, redroot pigweed, tall morningglory and corn onto the surface of the soil were scattered, and then covered with the soil to a thickness of 0.5 cm for the weed, 1 cm for the crop. When the weed and the crop reached the designated growth stage, they were treated with the compound to be tested.
(§3) Preparation of the Test Solution and the Method of Treatment
(§4) The compound to be tested was dissolved in acetone which contain Tween 20™ and diluted with deionized water to prepare the test solution for 10 g/a and 1 g/a use. The test solution was sprayed on the pots in a device for spraying using spraygun.
(§5) Method of Indicating the Effect and Phytotoxicity
(§6) The effect of the compound tested on the weeds and phytotoxicity on the crops were evaluated two weeks after treatment with the compound as 6 grades from 0 to 5 shown in the Table 9 and 10.
The phytotoxicity was indicated by the following evaluation index.

The test system of a further series is tall morningglory. Description: Herbicidal effects against weeds (post emergence), tall morningglory. The class given is in vivo. The note with it: post emergence spray, evaluated two weeks after treatment. On the procedure: as §1, §2, §3, §4, §5, §6
(§7) In the Table 11 and 12, the herbicidal effects were indicated by the following evaluation index.

Another series deals with velvetleaf. Description: Herbicidal effects against weeds (post emergence), velvetleaf. The note with it: post emergence spray, evaluated two weeks after treatment. The class given is in vivo. On the procedure: as §1, §2, §3, §4, §5, §6, §7
For another series, the system named is redroot pigweed. Description: Herbicidal effects against weeds (post emergence), redroot pigweed. Type of series: in vivo. To be noted: post emergence spray, evaluated two weeks after treatment. As to the method:
as §1, §2, §3, §4, §5, §6, §7

Several values for one entry are separate records, joined by “and”; a condition that tells them apart may be missing. Equal values may be shown once.

With `C#CCOc1cc(-n2nc3ccc(Cl)cn3c2=O)c(F)cc1Cl` [Compound No. A-25, 6-Chloro-2-(4-chloro-2-fluoro-5-propargyloxyphenyl)-1,2,4-triazolo[4,3-a]pyridin-3(2H)-one], the melting point lay in the range of 145 to 148 °C. The “Evaluation index Corn (phytotoxicity)” value with corn (1 g/a) is reported as 0 (no effect 0). In the series on corn (10 g/a), the “Evaluation index Corn (phytotoxicity)” value is on record as 1 (small 0.1 to 12.5). The “Evaluation index Tall morning glory” value in the series with tall morningglory (1 g/a) is listed as 5 (maximum *all dead) 100). In addition, the “Evaluation index Tall morning glory” value with tall morningglory (10 g/a) is 5 (maximum *all dead) 100). The “Evaluation index Velvet leaf” value in the series with velvetleaf (1 g/a) is given as 5 (maximum *all dead) 100). Also, the “Evaluation index Velvet leaf” value in the series with velvetleaf (10 g/a) is given as 5 (maximum *all dead) 100).

`CCS(=O)(=O)Nc1cc(-n2nc3n(c2=O)CCCS3)c(F)cc1C#N` [Compound No. E-1, 5,6-Dihydro-2-(4-cyano-5-ethylsulfonylamino-2-fluorophenyl)-7H-[1,2,4]triazolo[3,4-b][1,3]thiazin-3(2H)-one] showed a melting point of 193 to 195 °C. In the series on corn (1 g/a), the “Evaluation index Corn (phytotoxicity)” value is reported as 1 (small 0.1 to 12.5). The “Evaluation index Corn (phytotoxicity)” value in the series with corn (10 g/a) is given as 1 (small 0.1 to 12.5). Moreover, the “Evaluation index Redroot pigweed” value with redroot pigweed (1 g/a) is listed as 5 (maximum *all dead) 100). Moreover, the “Evaluation index Redroot pigweed” value with redroot pigweed (10 g/a) was 5 (maximum *all dead) 100). The “Evaluation index Velvet leaf” value with velvetleaf (1 g/a) is 5 (maximum *all dead) 100). In addition, the “Evaluation index Velvet leaf” value in the series on velvetleaf (10 g/a) is given as 5 (maximum *all dead) 100).

The compound `CCS(=O)(=O)Nc1cc(-n2nc3ccc(Cl)cn3c2=O)c(F)cc1C#N` [Compound No. A-3, 6-Chloro-2-(4-cyano-5-ethanesulfonylamino-2-fluorophenyl)-1,2,4-triazolo[4,3-a]pyridin-3(2H)-one] had a melting point of 220 to 222 °C. For the same compound, in the series with corn (1 g/a), the “Evaluation index Corn (phytotoxicity)” value is recorded as 1 (small 0.1 to 12.5). Moreover, the “Evaluation index Tall morning glory” value in the series on tall morningglory (1 g/a) is on record as 4 (maximum 87.6 to 99.9). In the series with velvetleaf (1 g/a), the “Evaluation index Velvet leaf” value is 5 (maximum *all dead) 100).

Consider `Cc1cc2c(-n3nc4ccc(Cl)cn4c3=O)c(F)cc(Cl)c2o1` [A-62, 6-Chloro-2-(7-chloro-5-fluoro-2-methylbenzofuran-4-yl)-1,2,4-triazolo[4,3-a]pyridin-3(2H)-one], for which the melting point fell in the range of 205 to 207 °C. The “Evaluation index Corn (phytotoxicity)” value in the series on corn (1 g/a) is 1 (small 0.1 to 12.5). Further, in the series with corn (10 g/a), the “Evaluation index Corn (phytotoxicity)” value was 1 (small 0.1 to 12.5). Further, in the series with redroot pigweed (1 g/a), the “Evaluation index Redroot pigweed” value is 5 (maximum *all dead) 100). In addition, the “Evaluation index Redroot pigweed” value in the series on redroot pigweed (10 g/a) is reported as 5 (maximum *all dead) 100). Besides, the “Evaluation index Velvet leaf” value in the series on velvetleaf (1 g/a) is 5 (maximum *all dead) 100). Besides, the “Evaluation index Velvet leaf” value with velvetleaf (10 g/a) was 5 (maximum *all dead) 100).

For `CCOC(=O)COc1cc(-n2nc3ccc(Cl)cn3c2=O)c(F)cc1Cl` [A-27], the “Evaluation index Tall morning glory” value with tall morningglory (10 g/a) is reported as 5 (maximum *all dead) 100). Moreover, the “Evaluation index Velvet leaf” value in the series with velvetleaf (10 g/a) was 5 (maximum *all dead) 100).

`CCS(=O)(=O)N(C(C)=O)c1cc(-n2nc3ccc(Cl)cn3c2=O)c(F)cc1C#N` [Compound No. A-6, 2-[5-(N-acetyl-N-ethanesulfonylamino)-4-cyano-2-fluorophenyl]-6-chloro-1,2,4-triazolo[4,3-a]pyridin-3(2H)-one]: the melting point lay within 220 to 222 °C. Besides, the “Evaluation index Corn (phytotoxicity)” value in the series on corn (10 g/a) is given as 1 (small 0.1 to 12.5). Further, the “Evaluation index Redroot pigweed” value in the series on redroot pigweed (10 g/a) is listed as 5 (maximum *all dead) 100). Further, the “Evaluation index Velvet leaf” value in the series on velvetleaf (10 g/a) is given as 5 (maximum *all dead) 100).

Turning to `CCOC(=O)COC(=O)c1cc(-n2nc3ccc(Cl)cn3c2=O)c(F)cc1Cl` [Compound No. A-34, Ethoxycarbonylmethyl 2-chloro-4-fluoro-5-(6-chloro-2,3-dihydro-3-oxo-1,2,4-triazolo[4,3-a]pyridin-2-yl)benzoate], the melting point lay in the range of 62 to 65 °C. Besides, in the series with corn (1 g/a), the “Evaluation index Corn (phytotoxicity)” value was 1 (small 0.1 to 12.5). Moreover, the “Evaluation index Redroot pigweed” value with redroot pigweed (1 g/a) is listed as 5 (maximum *all dead) 100). Besides, the “Evaluation index Velvet leaf” value in the series with velvetleaf (1 g/a) is 4 (maximum 87.6 to 99.9).

In the case of `CCS(=O)(=O)Nc1cc(-n2nc3ccc(C)cn3c2=O)c(F)cc1C#N` [A-50], the “Evaluation index Tall morning glory” value in the series with tall morningglory (10 g/a) is recorded as 5 (maximum *all dead) 100). Further, in the series on velvetleaf (10 g/a), the “Evaluation index Velvet leaf” value is recorded as 5 (maximum *all dead) 100).

Consider `CCS(=O)(=O)Nc1cc(-n2nc3ccc(Cl)cn3c2=O)c(F)cc1Cl` [Compound No. A-35, 6-Chloro-2-(4-chloro-5-ethanesulfonylamino-2-fluorophenyl)-1,2,4-triazolo[4,3-a]pyridin-3(2H)-one], for which the melting point is 121 to 123 °C and 120 to 122 °C. For the same compound, the “Evaluation index Corn (phytotoxicity)” value with corn (10 g/a) is 1 (small 0.1 to 12.5). In addition, the “Evaluation index Redroot pigweed” value with redroot pigweed (10 g/a) is recorded as 5 (maximum *all dead) 100). In addition, the “Evaluation index Velvet leaf” value in the series on velvetleaf (10 g/a) was 5 (maximum *all dead) 100).

Turning to `CCS(=O)(=O)Nc1cc(-n2nc3c(Cl)cccn3c2=O)c(F)cc1C#N` [A-48], the “Evaluation index Tall morning glory” value with tall morningglory (10 g/a) is recorded as 5 (maximum *all dead) 100). In addition, the “Evaluation index Velvet leaf” value with velvetleaf (10 g/a) was 5 (maximum *all dead) 100).

Take `CCOC(=O)CSc1cc(-n2nc3ccc(Cl)cn3c2=O)c(F)cc1C#N` [A-19]: the “Evaluation index Tall morning glory” value with tall morningglory (10 g/a) is on record as 5 (maximum *all dead) 100). Moreover, the “Evaluation index Velvet leaf” value in the series on velvetleaf (10 g/a) is 5 (maximum *all dead) 100).

For orientation: melting point means the temperature of the solid-liquid transition.
